Results as given in patent US12011619B2, “Low intensity focused ultrasound for treating cancer and metastasis” (priority 2015, dated 2024).

What was measured:
[1] = system: CHOP transcript; assay: Real Time-PCR analysis of CHOP mRNA in tumors; format: in vivo, mouse; conditions: RM1 tumors
Source text: Although phosphorylated eIF2α decreases the translation of most cellular proteins, including pro-survival and anti-apoptotic proteins, it increases the translation of a transcription factor, ATF4 that is responsible for inducing the transcription of pro-apoptotic genes, such as, CCAAT/enhancer-binding protein homologous protein (CHOP), thereby preparing the cell for programmed cell death in case the misfolded proteins are not repaired and ER stress persists.
Real Time PCR analysis of UPR target genes 24 hr after LOFU treatment the RM1 tumor cells were lysed using RLT buffer mixed with 1% betamercaptoethanol from RNeasy Mini Kit (Qiagen, Valencia, CA, USA).
Qiagen's protocol for the RNeasy Mini Kit with on-column DNA digestion was used to isolate RNA from the tumor lysates. The RNA samples were stored at −80° C., prior to further use. Isolated RNA was subjected to cDNA synthesis using the SuperScript™ First-Strand Synthesis System (Invitrogen, Grand Island, NY, USA). The splicing of XBP1 RNA was detected using the following primer pair 5′-[…]-3′ (SEQ ID NO:19) and 5′-[…]-3′ (SEQ ID NO:20) (Fisher Scientific, Pittsburgh, PA, USA). […]
Primers used for real time PCR included GRP78 5′[…]3′ (SEQ ID NO:21) and 5′[…]3′ (SEQ ID NO:22); EDEM 5′ […] […] Data was analyzed by web based PCR array data analysis software from SA Biosciences.

[2] = system: RM1 tumor (murine prostate cancer cell line); assay: RM1 tumor growth in C57Bl/6 mice; format: in vivo, mouse; conditions: for tumor volume: untreated tumor 1879±98.65 mm^3
Procedure: (§1) This protocol yielded an approximate in situ spatial-peak temporal-average acoustic intensity of 270 W/cm^2, resulting in estimated average intra-tumoral temperature elevation of 3.2° C. Post-treatment, there were no signs of normal tissue toxicity such as alopecia, thermal damage, or skin wounds. […] Control mice were injected with equal volume of the vehicle DMSO, which was used to solubilize 17AAG.
(§2) C57Bl/6 and BalbC nu/nu mice were injected subcutaneously with 1×10^5 RM-1 (murine prostate cancer cell line) and 1×10^6 PC3 (human prostate cancer cell line) cells on the flank, respectively. Approximately 10 days later, the tumor became palpable (3-5 mm in diameter), whereupon LOFU treatment was initiated. […] Palpable tumors were treated with LOFU every 3-4 days for five fractions administered over two weeks. Animals received 17AAG three times a week during this time. Tumor volume measurements were performed twice weekly using Vernier calipers along with simultaneous physical assessment of signs of systemic toxicity (malaise and diarrhea).

[3] = Toxicity / survival of 17AAG dosing in mice (Kaplan Meier, signs of toxicity); format: in vivo
Procedure: as §1
Thus, these dose levels were selected for the current study. The goal was to combine two therapies that are nontoxic, albeit subtherapeutic, and examine whether the combination can be therapeutic. […] To detect the level of ER stress, the expression levels of ER chaperones, ERp44, ERp57, and ERp72 were quantitated among different treatment groups. ERp44 is responsible for oxidative protein folding. ERp57 is an ER resident thiol disulfide oxidoreductase while Erp72 is a disulfide isomerase. All these proteins participate in the protein folding machinery of the ER.
as §2
Mice survival/mortality in different treatment groups was analyzed by Kaplan-Meier as a function of radiation dose using Sigma-Plot and GraphPad Prism (version 4.0 for OS X, San Diego, CA, USA) software.

With C=CCNC1=C2C[C@@H](C)C[C@H](OC)[C@H](O)[C@@H](C)/C=C(\C)[C@H](OC(N)=O)[C@@H](OC)/C=C\C=C(/C)C(=O)NC(=CC1=O)C2=O [17AAG, 17-N-allylamino-17-demethoxygeldanamycinan] the “CHOP transcript levels, induction compared to untreated controls” value [1] was 14.8±2 fold, the tumor volume ([2]; 17AAG 50 mg/kg b.w. i.p. three times a week, C57Bl/6 mice) was 964 mm^3 and the tumor volume ([2]; 17AAG 75 mg/kg b.w. i.p. three times a week, C57Bl/6 mice) was 485±24.25 mm^3. For the same molecule, the “interval within which all the animals achieved tumor size 2000 mm^3” value ([2]; RM1 tumors, 17AAG 25 mg/kg alone) was 26 to 30 days, the “average estimated tumor growth slower compared to control group” value ([2]; RM1 tumors, 17AAG 25 mg/kg, C57Bl/6 mice) was 9% and the “death of mice (Kaplan Meier survival analysis)” value ([3]; 75 mg/kg of body weight, after 21 days of treatment, C57Bl/6 mice) was 50%. The “low dose found to be nontoxic” value ([3]; Balb/c nude mice) was 14 mg/kg, the “low dose found to be nontoxic” value ([3]; C57Bl/6 mice) was 25 mg/kg and the “normal tissue toxic effect” value ([3]; low dose 17AAG 25 mg/kg body weight, C57Bl/6 mice) was “did not show any normal tissue toxic effect”.
